{"source": "patent US6531465B1", "about": "(priority 1995, dated 2003)", "key": {"[1]": {"test_system": "Streptococcus pneumoniae, strain ATCC 49619", "test": "Agar Dilution Test (NCCLS), Streptococcus pneumoniae", "type": "cell-based", "details": "Example 139 tested in form of the trihydrochloride", "source_text": "In particular, the active compounds of the invention show antimicrobial, e.g. antibacterial, activity against gram negative and gram positive bacteria such as Pseudomonas, e.g. Pseudomonas aeruginosa, Pseudomonas fluorescens; Enterobacter, e.g. Enterobacter cloacae; Enterococcus, e.g. Enterococcus faecalis; Moraxella, e.g. Moraxella catarrhalis; Haemophilus, e.g. Haemophilus influenza; Klebsiella, e.g. Klebsiella edwardsii, Klebsiella pneumoniae; Streptococcus, e.g. Streptococcus pneumoniae, Streptococcus durans, Streptococcus faecium, Streptococcus pyogenes; Staphylococcus, e.g. Staphylococcus aureus, Staphylococcus pyogenes; Escherichia, e.g. Escherichia coli; and Proteus, e.g. Proteus mirabilis in vitro in the Agar Dilution Test according to National Commitee for Clinical Laboratory Standards (NCCLS) 1993, Document M7-A3Vol.13, No. 25: “Methods for dilution Antimicrobial Susceptibility Tests for Bacteria that Grow Aerobically—Third Edition, Approved Standard” and in vivo in the septikaemic mouse model. The active compounds of the invention show activity in the mouse when administerd at dosages from about 0.05 to 50 mg/kg body weight (ED50 values).The active compounds show an MHK(μg/ml) in the Agar Dilution Test from about 0.005 to ca. 50. The active compounds of the invention show an surprising overall activity spectrum."}, "[2]": {"test_system": "Pseudomonas aeruginosa strain 27853", "test": "Agar Dilution Test (NCCLS), Pseudomonas aeruginosa", "type": "cell-based", "source_text": "In particular, the active compounds of the invention show antimicrobial, e.g. antibacterial, activity against gram negative and gram positive bacteria such as Pseudomonas, e.g. Pseudomonas aeruginosa, Pseudomonas fluorescens; Enterobacter, e.g. Enterobacter cloacae; Enterococcus, e.g. Enterococcus faecalis; Moraxella, e.g. Moraxella catarrhalis; Haemophilus, e.g. Haemophilus influenza; Klebsiella, e.g. Klebsiella edwardsii, Klebsiella pneumoniae; Streptococcus, e.g. Streptococcus pneumoniae, Streptococcus durans, Streptococcus faecium, Streptococcus pyogenes; Staphylococcus, e.g. Staphylococcus aureus, Staphylococcus pyogenes; Escherichia, e.g. Escherichia coli; and Proteus, e.g. Proteus mirabilis in vitro in the Agar Dilution Test according to National Commitee for Clinical Laboratory Standards (NCCLS) 1993, Document M7-A3Vol.13, No. 25: “Methods for dilution Antimicrobial Susceptibility Tests for Bacteria that Grow Aerobically—Third Edition, Approved Standard” and in vivo in the septikaemic mouse model. […]\nIt has, for example, been determined that the MHK (μg/ml) of the compound of Example 139 against, for example Enterococcus faecalis strains ATTC 29212 or ATCC 51299, is of ca. 0.08 to 0.25; ainst Staphylococcus aureus strains ATCC 29213 or ATCC 9144 is of ca. 0.2 to 0.4 and against Pseudomonas aeruginosa strain 27853 is ca. 0.8."}}, "data": [{"molecule": "7-[[(5-Amino-1,2,4-thiadiazol-3-yl)-(Z)-(fluormethoxyimino)acetyl]amino]-3-[[(piperazinoiminomethyl)hydrazono]methyl]-3-cephem-4-carboxylic acid [Example 139]", "values": [{"measurement": "MHK", "setting": "[1]", "value": "ca. 0.01 μg/ml"}, {"measurement": "MHK", "setting": "[2]", "value": "ca. 0.8 μg/ml"}]}, {"molecule": "CO/N=C(\\C(=O)N[C@@H]1C(=O)N2C(C(=O)O)=C(CSc3nc(=O)c(=O)[nH]n3C)CS[C@H]12)c1csc(N)n1", "note": "[ceftriaxone, reference compound]", "values": [{"measurement": "MHK", "setting": "[1]", "value": "ca. 0.02 μg/ml"}]}]}
